# Measured values as given in patent publication EP1997826A2, “Synthetic ligands for immunoglobulins and pharmaceutical compositions containing them” (Tecnogen S.p.A., priority 2007, dated 2008).
# pIC50: −log10 of the molar value. Like-named read-outs stand apart in the source and are kept apart here.
# Experiments:
# RBL 2H3 cells = experiment: assay for degranulation of the RBL 2H3 cells (release of β-hexose-aminidase induced by anti-DNP IgE and DNP-BSA antigen); assay type: cell-based, rat; details: for percentage inhibition of the degranulation reaction: added together with the antigen; for concentration able to reduce 50% of the cellular degranulation: RBL 2H3 cells, 0.5 µg/ml IgE, 0.05 µg/ml DNP-BSA; for pIC50: read-out: concentration able to reduce 50% of the cellular degranulation
# Source text: The RBL 2H3 cell line, rat basophils that express the receptor with high affinity for the immunoglobulins of class E (FcεRl), is widely used for investigating allergic reactions, because in this cell line the chemical mediators of inflammation are released as a result of allergen specific-IgE-FcεRI binding.
# Release of the enzyme β-hexose-aminidase, which is present together with histamine in the granules of mast cells and basophils, can be used as an index of cellular degranulation (Tanaka et al., 1991, Chem. Pharm. Bull, 39, 2072-2076; McCloskey et al., 1988, Proc. Natl. Acad. Sci., USA, 85, 7260-7264).
# The activity of the enzyme β-hexose-aminidase, released by the stimulated RBL 2H3 cells, was determined by the method described by Yamanishi et al., 1995, Jour. Biotech. Biochem., 59 (7), 1272-1275, which envisages measurement of the enzymatic activity by measuring the absorbance of the product p-nitrophenol generated by the synthetic substrate p-nitrophenyl-N-acetyl-β-D-glucosamide. 1x10^5 RBL 2H3 cells, trypsinized from plates at confluence, were resuspended in a volume of 80 µl of the culture medium (MEM + 10% inactivated fetal bovine serum) and distributed in each well of the 96-well plates (Costar). After 24 hours, 20 µl of medium containing anti-2,4-dinitrophenol monoclonal IgEs (DNP, Sigma, Cat. No. D-8406) was added to each well.
# The microplates were incubated at 37°C for one hour and then washed three times with 100 µl of HBS buffer solution (10 mM HEPES, 135 mM NaCl, 5 mM KCI, 1 mM CaCl2, 0.5 mM MgCl2, 5.6 mM glucose, 0.1 % BSA, pH 7.4). After the washings, 100 µl of HBS containing the 2,4-dinitrophenol antigen conjugated to BSA (Sigma, Cat. No. A-6661) was added. As a control, 100 µl of HBS containing 1% Triton X-100 was added to some wells to determine the total amount of enzyme contained in the cellular granules.
# After further incubation at 37°C for two hours, 30 µl of cellular supernatant or of cellular lysate was transferred to a new microplate, to which 50 µl of sodium citrate buffer at pH 4.5, containing 4 mM p-nitrophenyl-N-acetyl-β-D-glucosaminide (Sigma, Cat. No. N9376), a specific substrate for the enzyme β-hexose-aminidase, had been added beforehand. After incubation for two hours at 37°C, the reaction was stopped by adding 100 µl of glycine solution 0.2 M, pH 10.7. The enzymatic activity was determined by measuring the absorbance at 405 nm with a Microplate Reader Model 3550 EIA (Bio-Rad).
# In preliminary experiments the immunoglobulins E and the antigen were added at various concentrations in order to determine the optimum concentrations for induction of the reaction of enzymatic release. The conditions identified experimentally correspond to 0.5 µg/ml of IgE and 0.05 µg/ml of antigen DNP conjugated to BSA.
# To verify the capacity of the peptides of formula IB and of comparative peptides for inhibiting the degranulation of the RBL 2H3 cells, the peptides were added in the assay together with the antigen at concentrations between 0.1 and 500 µg/ml.
# [1] = tested on: male rats of the CD1 species; assay type: in vivo, rat; details: for dose inhibiting the inflammatory reaction completely: rat, intradermal; for Inhibition of skin reaction (%): intradermal with IgE ascitic fluid
# Experimental: Passive cutaneous anaphylaxis in the rat was induced according to the procedure described by Ovary et al., 1952, Int. Arch. Allergy Appl. Immunol. 3:293-301. Rat ascitic fluid containing specific IgE against the ovalbumin antigen was injected in the shaved back of male rats of the CD1 species (Charles River, Italy). Ascitic fluid at different dilutions (from 20 to 20 000 times in PBS) was applied by intradermal injections at a volume of 50 µl, permitting the IgEs present in the ascitic fluid to bind to the FcεRs of the local mast cells, sensitizing them. On the next day, 1 mg of ovalbumin and the dye Evans Blue at a concentration of 2.0%, dissolved in 1 ml of PBS, were injected intravenously. After 30 minutes, the appearance, on the rats' backs, of stained areas in the dermis (wheals) with extent and intensity of staining proportional to the quantity of antigen-specific IgEs injected with the ascitic fluid, was observed. The experiment included a negative control, represented by the intradermal injection of 50 µl of PBS without ascitic fluid, and there was no corresponding appearance of staining. The rats were sacrificed and comparative evaluation of the dimensions and intensity of coloration of the wheals that developed was carried out by densitometric analysis of colour photographs of the animals taken with a single camera, a single film and in the same conditions of exposure times, lighting and orientation. The densitometric analyses were performed with the aid of the IMAGE PRO-PLUS software (Media Cybernetics, Inc.). On the basis of the results obtained in the IgE-FcεR linear binding assay (absence of inhibitors), selecting as reference point the value of dilution of the ascitic fluid at which the most intense inflammatory reaction was observed (the wheal with most intense staining, and consequently the maximum signal on the densitometer), an assay of inhibition of the allergic reaction was performed using peptide lB and the comparative peptide. For this purpose, 25 µl of ascitic fluid containing IgE suitably diluted was incubated with 25 µl of PBS containing different doses of the test compounds (0.025, 0.25, 2.5, 25, 250 and 2500 µg). A single rat was used for each compound. The back of each rat was shaved and was then subdivided into 8 sections by making marks to delimit the zones in which the injections were made. The mixture (50 µl) containing the ascitic fluid and the compounds at the various doses was administered intradermally at each selected point. An injection of 25 µl of ascitic fluid suitably diluted and incubated with 25 µl of PBS was used as the positive control, and 50 µl of PBS was used as the negative control. After 24 hours, the antigen was injected together with the Evans Blue dye as previously described and thirty minutes later, corresponding to the injection sites on the rats' backs, the appearance of coloured wheals was observed, with intensity and dimensions markedly less than in the zones in which higher concentrations of compounds had been applied.
# [2] = Concentration of Peptide 0.1 µg/ml
# [3] = Concentration of Peptide 1 µg/ml
# [4] = Concentration of Peptide 10 µg/ml
# [5] = Concentration of Peptide 50 µg/ml
# [6] = Concentration of Peptide 100 µg/ml
# [7] = Concentration of Peptide 500 µg/ml
# [8] = molar value printed in brackets
Molecule,percentage inhibition of the degranulation reaction (RBL 2H3 cells; [2]) [%],percentage inhibition of the degranulation reaction (RBL 2H3 cells; [3]) [%],percentage inhibition of the degranulation reaction (RBL 2H3 cells; [4]) [%],percentage inhibition of the degranulation reaction (RBL 2H3 cells; [5]) [%],percentage inhibition of the degranulation reaction (RBL 2H3 cells; [6]) [%],percentage inhibition of the degranulation reaction (RBL 2H3 cells; [7]) [%],concentration able to reduce 50% of the cellular degranulation (RBL 2H3 cells) [µg/mL],pIC50 (RBL 2H3 cells),dose inhibiting the inflammatory reaction completely [1] [µg],"dose inhibiting the inflammatory reaction completely [1, 8]",activity greater than the activity of the comparative peptide (RBL 2H3 cells; degranulation of RBL 2H3 cells),Inhibition of skin reaction (%) ([1]; Dose of Peptide 0.025 (µg/ml)),Inhibition of skin reaction (%) ([1]; Dose of Peptide 0.25 (µg/ml)),Inhibition of skin reaction (%) ([1]; Dose of Peptide 2.5 (µg/ml)),Inhibition of skin reaction (%) ([1]; Dose of Peptide 25 (µg/ml)),Inhibition of skin reaction (%) ([1]; Dose of Peptide 250 (µg/ml)),Inhibition of skin reaction (%) ([1]; Dose of Peptide 2500 (µg/ml)),activity greater than the activity of the comparative peptide ([1]; rat passive cutaneous anaphylaxis)
"C[C@H](O)[C@@H](NC(=O)[C@H](N)CCCNC(=N)N)C(=O)N[C@H](Cc1ccc(O)cc1)C(=O)NCCCC[C@H](NC(=O)[C@@H](Cc1ccc(O)cc1)NC(=O)[C@H](NC(=O)[C@H](N)CCCNC(=N)N)[C@H](C)O)C(=O)NCCCC[C@H](NC(=O)[C@H](CCCCNC(=O)[C@@H](Cc1ccc(O)cc1)NC(=O)[C@H](NC(=O)[C@H](N)CCCNC(=N)N)[C@H](C)O)NC(=O)[C@@H](Cc1ccc(O)cc1)NC(=O)[C@H](NC(=O)[C@H](N)CCCNC(=N)N)[C@H](C)O)C(=O)NCC(=O)O [Comparative peptide, (H-D-Arg-D-Thr-D-Tyr-)4-L-Lys2-L-Lys-Gly-OH, reference compound]",0,40,49,59,62,70,10,5.34,25,11.6 nmol,,,,,,,,
(H-L-Cys(p-MeOBzl)-D-Arg-D-Thr-D-Tyr)4-L-Lys2-L-Lys-L-Lys-OH [Peptide IB],20,76,80,82,85,90,1,~6.52,2.5,approx. 0.8 nmoles,approx. 15 times,35,60,100,100,100,100,approx. 15 times
